According to US20210076683A1, “USE OF BACILLUS METHYLOTROPHICUS AS A STIMULANT OF PLANT GROWTH AND BIOLOGICAL CONTROL MEANS, AND ISOLATES OF SAID SPECIES” (UNIVERSIDAD DE GRANADA, priority 2014, published 2021):
*1 amine or outer side, *2 acyl side, *3 side chain or, on linkers, in order; H or OH if unused. Where a SMILES comes first, the peptide text is derived from it. Bridges are numbered along the chain shown (N, C = ends). [ ]: non-standard residue; d: D form. X1 = CC(C)CCCCCCCCC[C@H](CC(=O)[*:1])O[*:2]

How the values were obtained:
[1] = Surfactant activity of the lipopeptides (CMC, surface tension); assay type: physicochemical; settings: at the CMC 0.0025%
Description: After extracting the lipopeptides following the method of Cooper et al. 1981, a yield of 0.12 g/l and 0.10 g/l of culture was obtained for strains XT1 and XT2, respectively. The type strain produced 0.6 g/l. Lipopeptide production has not been described in the case of the Bacillus strain of the commercial preparation Botrybel. More specifically, in addition to surfactin, strain XT1 object of the present invention produces other surfactant lipopeptides such as fengycin and lichenysin.
The cellular dry weight (CDW) of strains XT1, XT2 and of type strain is 2.7 g/l, 2.5 g/l and 2.9 g/l, respectively. In the case of strain XT1, the critical micelle concentration (CMC) is 0.0025% (0.025 mg/ml); a surface tension of 29.7 mN/m was obtained with this value. In the case of the surfactin produced by B. subtilis and marketed by Sigma®, values of 26.7 mN/m at the same CMC were obtained. In other words, strain XT1 produces very active lipopeptides surfactants showing activity similar to the surfactin available on the market.

Anthocoris nemoralis = test: Mortality by ingestion in Anthocoris nemoralis; settings: observed 6 days; cultures 5×10^8 CFU/ml, surfactants and Tween 80 1/1000; water control 10

Row | surface tension [1] [mN/m] | Compound | Mortality by ingestion (Anthocoris nemoralis)
1 | 26.7 | CC(C)CCCCCCCCC[C@@H]1CC(=O)N[C@@H](CCC(=O)O)C(=O)N[C@@H](CC(C)C)C(=O)N[C@H](CC(C)C)C(=O)N[C@@H](C(C)C)C(=O)N[C@@H](CC(=O)O)C(=O)N[C@H](CC(C)C)C(=O)N[C@@H](CC(C)C)C(=O)O1 [surfactin] (EL[dL]VD[dL]L; linker N-C via X1) | 
2 |  | Tween 80 | 5 percentage of individuals
